These results are taken from patent publication US8877944B2, “3-oxo-2,3-dihydro-1H-isoindole-4-carboxamides as PARP inhibitors” (Nerviano Medical Sciences S.R.L., priority 2009, dated 2014).

What is called pIC50 is the negative decadic logarithm of the IC50, by convention in mol/L. As usually defined, the pKd is −log10 of the Kd, conventionally taken in molar units. Lower therefore signals a large Kd.

The subject of test [1] is PAR formation in HeLa cells. The test can be described thus: Cellular PAR assay: inhibition of hydrogen peroxide induced PAR formation. The settings on record: Homo sapiens, read-out: PAR assay IC50.
Experimental: Compounds potencies were evaluated by measuring the inhibition of poly (ADP-ribose) (PAR) chains formation as a marker for PARP-1 inhibition.
Cellular activity of PARP-1 inhibitors was assessed by measuring the inhibition of the hydrogen peroxide induced PAR formation in HeLa cells (ECACC). Cellular PAR levels were measured by immunocytochemistry, and quantified using an ArrayScan vTi instrument (Cellomics Thermo Scientific).
Test compounds were then added at the required concentration for 30′. […] Concentration curves were prepared in MEM/10% FCS from compound stocks in DMSO, and final DMSO concentration was 0.002% (v/v). Duplicate wells for each concentration point were prepared with a typical highest compound concentration of 20 μM and serial dilution 1:3. […] Non-specific binding sites were blocked by incubating wells for 30 min in PBS containing 5% (w/v) FBS 0.05% tween20. […] After washing further 3 times in PBS, cellular PAR immunoreactivity was assessed using the ArrayScan vTi instrument, with a Zeiss 10×0.5 N.A. objective, and applying the Cytotoxicity.V3 algorithm (Cellomics/Thermo Fisher) with a XF100 filter. At least 10 fields, corresponding to at least 900 cells, were read for each well.
The following formula is used: IC50=Bottom+(Top-Bottom)/(1+10^((LogEC50−X))); X is the logarithm of concentration. IC50 is the response; IC50 starts at Bottom and goes to Top with a sigmoid shape.
Another test addresses PARP-2 FL (Homo sapiens (Human), UniProt Q9UGN5). The test can be described thus: Fluorescence polarization probe displacement assay, PARP-2. The settings on record: read-out: PARP-2 DC50; half maximal displacement concentration. It counts as binding. For orientation: Fluorescence polarisation rises when a labelled molecule tumbles more slowly, as on binding a larger partner.

The next test addresses PARP-1 FL (Homo sapiens (Human), UniProt P09874). The test can be described thus: Fluorescence polarization probe displacement assay, PARP-1. The settings on record: for pKd: compound P1 as the probe, 250 nM PARP-1; for DC50: half maximal displacement concentration. The format is binding.

Molecules are shown by their SMILES. pIC50, pKd: −log10 of the molar value. Bounds are passed on as bounds.

Sequence of PARP-1 FL (P09874 whole entry): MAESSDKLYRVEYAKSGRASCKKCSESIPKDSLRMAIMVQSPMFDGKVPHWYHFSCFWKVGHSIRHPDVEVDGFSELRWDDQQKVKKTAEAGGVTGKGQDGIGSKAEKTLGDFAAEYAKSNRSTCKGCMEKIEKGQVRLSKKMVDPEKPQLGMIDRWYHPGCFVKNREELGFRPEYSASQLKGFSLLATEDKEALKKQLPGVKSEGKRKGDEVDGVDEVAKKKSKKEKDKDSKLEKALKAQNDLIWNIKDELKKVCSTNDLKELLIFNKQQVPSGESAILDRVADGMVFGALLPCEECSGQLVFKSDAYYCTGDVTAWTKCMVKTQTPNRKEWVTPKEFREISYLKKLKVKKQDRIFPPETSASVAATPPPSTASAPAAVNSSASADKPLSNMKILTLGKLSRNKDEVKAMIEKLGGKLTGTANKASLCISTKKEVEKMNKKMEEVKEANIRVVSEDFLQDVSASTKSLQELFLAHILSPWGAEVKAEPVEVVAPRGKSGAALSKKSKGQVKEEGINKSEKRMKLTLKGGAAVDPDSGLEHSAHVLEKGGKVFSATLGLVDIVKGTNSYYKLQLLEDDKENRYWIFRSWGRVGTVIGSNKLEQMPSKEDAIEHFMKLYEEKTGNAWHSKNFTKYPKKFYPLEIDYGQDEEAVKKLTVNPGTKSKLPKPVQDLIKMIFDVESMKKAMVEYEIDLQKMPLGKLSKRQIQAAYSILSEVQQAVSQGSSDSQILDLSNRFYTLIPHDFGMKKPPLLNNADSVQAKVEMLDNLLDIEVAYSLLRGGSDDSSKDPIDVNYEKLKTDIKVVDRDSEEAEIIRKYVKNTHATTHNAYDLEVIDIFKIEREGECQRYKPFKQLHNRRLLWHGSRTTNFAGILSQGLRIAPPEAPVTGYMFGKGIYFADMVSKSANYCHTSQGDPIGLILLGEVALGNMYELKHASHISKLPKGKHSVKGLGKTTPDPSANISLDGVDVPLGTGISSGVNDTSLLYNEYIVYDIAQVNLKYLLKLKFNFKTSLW
Sequence of PARP-2 FL (Q9UGN5 whole entry): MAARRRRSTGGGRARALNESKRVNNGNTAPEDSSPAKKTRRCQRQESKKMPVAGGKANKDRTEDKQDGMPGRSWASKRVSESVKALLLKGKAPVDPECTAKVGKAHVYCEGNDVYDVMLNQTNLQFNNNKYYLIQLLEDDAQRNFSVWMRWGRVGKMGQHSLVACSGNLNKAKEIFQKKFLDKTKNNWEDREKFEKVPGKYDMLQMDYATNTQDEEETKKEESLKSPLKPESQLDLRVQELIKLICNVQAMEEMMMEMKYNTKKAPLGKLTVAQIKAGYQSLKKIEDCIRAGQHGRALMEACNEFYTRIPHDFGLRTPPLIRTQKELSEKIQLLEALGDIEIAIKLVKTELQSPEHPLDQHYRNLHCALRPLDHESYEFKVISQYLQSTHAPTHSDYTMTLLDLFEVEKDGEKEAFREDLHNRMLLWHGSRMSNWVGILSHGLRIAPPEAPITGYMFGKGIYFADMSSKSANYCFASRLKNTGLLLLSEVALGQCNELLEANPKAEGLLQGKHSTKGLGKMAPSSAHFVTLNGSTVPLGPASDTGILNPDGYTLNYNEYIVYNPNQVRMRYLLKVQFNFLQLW
Experimental for PARP-1 FL: (§1) Affinity evaluation of the tested compounds and their selectivity with respect to the different PARP isoforms of interest was assessed in a displacement assay.
(§2) The polarization signal can be measured, e.g., by a plate reader such as the Saphire2 (Tecan). The displacement ability of the test compound is in correlation with the compound affinity for the NAD pocket of the enzyme.
(§3) The assay performances were then evaluated (Z′ factor) as well as the displacement of the probe by its scaffold and known commercially available PARP inhibitors. In all of the experiments, the polarization signal was measured using a Saphire2 plate reader (Tecan). Data analysis was performed using Dynafit software. In particular, titration data were fitted to the following equilibria: Enzyme+probe <==> Complex Enzyme-probe, while displacement data were fitted to the following equilibria: Enzyme+probe <==> Complex Enzyme-probe, Enzyme+Compound <==> Complex Enzyme-Compound, whereby binding of probe and compound on the enzyme are mutually exclusive (pure competitive mechanism). Displacement data were also fitted using Excell spreadsheet (Microsoft Inc. Seattle, USA) to a four parameter logistic model (4PL), or Hill-Slope model to calculate DC50s where the DC50 value represents the compound concentration at which the polarization signal is diminished by 50% compared to untreated controls.
(§4) KD values, are the average of three independent experiments.
Experimental for PARP-2 FL: as §1, §2, §3, §4

For `COC[C@H]1CC[C@@H](N2CCC(N3Cc4cccc(C(N)=O)c4C3=O)CC2)CC1` [Compound 5, 2-{1-[Cis-4-(methoxymethyl)cyclohexyl]piperidin-4-yl}-3-oxo-2,3-dihydro-1H-isoindole-4-carboxamide], in test [1], the pIC50 is 5.34. On PARP-2 FL, the DC50 was above 10000 nM. Besides, at PARP-1 FL, the pKd is 7.40 and the DC50 is below 250 nM.

As for `COC[C@H]1CC[C@H](N2CCC(N3Cc4cccc(C(N)=O)c4C3=O)CC2)CC1` [Compound 6, 2-{1-[Trans-4-(methoxymethyl)cyclohexyl]piperidin-4-yl}-3-oxo-2,3-dihydro-1H-isoindole-4-carboxamide], the pIC50 in test [1] was 5.64. Moreover, the DC50 is above 10000 nM on PARP-2 FL and below 250 nM at PARP-1 FL. Moreover, the pKd on PARP-1 FL is above 7.52.

Consider `NC(=O)c1cccc2c1C(=O)N(C1CCN(Cc3ccc(F)cc3)CC1)C2` [Compound 11, 2-[1-(4-Fluorobenzyl)piperidin-4-yl]-3-oxo-2,3-dihydro-1H-isoindole-4-carboxamide], for which the DC50 at PARP-2 FL was above 10000 nM.

As to `NC(=O)c1cccc2c1C(=O)N(C1CCN(Cc3ccccc3F)CC1)C2` [Compound 12, 2-[1-(2-Fluorobenzyl)piperidin-4-yl]-3-oxo-2,3-dihydro-1H-isoindole-4-carboxamide], the DC50 at PARP-2 FL was above 10000 nM. On PARP-1 FL, this molecule gave a pKd above 7.52 and a DC50 below 250 nM.

On to `NC(=O)c1cccc2c1C(=O)N(C1CCN(Cc3cccc(F)c3)CC1)C2` [Compound 13, 2-[1-(3-Fluorobenzyl)piperidin-4-yl]-3-oxo-2,3-dihydro-1H-isoindole-4-carboxamide], for which the DC50 at PARP-2 FL is above 10000 nM. On PARP-1 FL, this molecule gave a negative-log Kd (pKd) above 7.52 and a DC50 below 250 nM.

With `NC(=O)c1cccc2c1C(=O)N(C1CCN(Cc3ccc4ccccc4n3)CC1)C2` [Compound 16, 3-oxo-2-[1-(quinolin-2-ylmethyl)piperidin-4-yl]-2,3-dihydro-1H-isoindole-4-carboxamide], the DC50 at PARP-2 FL turned out to be 3200 nM. On PARP-1 FL, this molecule had a pKd above 7.52 and a DC50 below 250 nM.

For the molecule `NC(=O)c1cccc2c1C(=O)N(C1CCN(Cc3ccc(F)cc3F)CC1)C2` [Compound 17, 2-[1-(2,4-Difluorobenzyl)piperidin-4-yl]-3-oxo-2,3-dihydro-1H-isoindole-4-carboxamide], in test [1], the pIC50 is 5.24. Also, the DC50 was above 10000 nM at PARP-2 FL and below 250 nM at PARP-1 FL. On PARP-1 FL, this molecule showed a pKd above 7.52.

In the case of `Cc1ccc(CN2CCC(N3Cc4cccc(C(N)=O)c4C3=O)CC2)cc1C` [Compound 18, 2-[1-(3,4-Dimethylbenzyl)piperidin-4-yl]-3-oxo-2,3-dihydro-1H-isoindole-4-carboxamide], the pIC50 in test [1] was 5.15. Besides, the DC50 at PARP-2 FL was above 10000 nM. Moreover, at PARP-1 FL, the pKd is above 7.52 and the DC50 is below 250 nM.

Regarding `Cc1ncsc1CN1CCC(N2Cc3cccc(C(N)=O)c3C2=O)CC1` [Compound 26, 2-{1-[(4-Methyl-1,3-thiazol-5-yl)methyl]piperidin-4-yl}-3-oxo-2,3-dihydro-1H-isoindole-4-carboxamide], the pIC50 in test [1] was 6.70. Also, at PARP-2 FL, the DC50 amounted to 6500 nM. Further, at PARP-1 FL, the negative logarithm of the Kd (pKd) was above 7.52 and the DC50 is below 250 nM.

For `NC(=O)c1cccc2c1C(=O)N(C1CCN(CC3CCN(Cc4ccccc4)CC3)CC1)C2` [Compound 27, 2-{1-[(1-Benzylpiperidin-4-yl)methyl]piperidin-4-yl}-3-oxo-2,3-dihydro-1H-isoindole-4-carboxamide], the pIC50 in test [1] was 6.49. Further, the DC50 at PARP-2 FL was above 10000 nM. On PARP-1 FL, the pKd was above 7.52 and the DC50 turned out to be 260 nM.

On to `NC(=O)c1cccc2c1C(=O)N(C1CCN(Cc3cccc4[nH]ccc34)CC1)C2` [Compound 28, 2-[1-(1H-indol-4-ylmethyl)piperidin-4-yl]-3-oxo-2,3-dihydro-1H-isoindole-4-carboxamide], for which the negative logarithm of the IC50 (pIC50) in test [1] was 6.72. In addition, on PARP-1 FL, the pKd is 7.47 and the DC50 is below 250 nM.

For the molecule `NC(=O)c1cccc2c1C(=O)N(C1CCN(Cc3ccc4cc[nH]c4c3)CC1)C2` [Compound 30, 2-[1-(1H-indol-6-ylmethyl)piperidin-4-yl]-3-oxo-2,3-dihydro-1H-isoindole-4-carboxamide], the pIC50 in test [1] is 6.52. Besides, the DC50 on PARP-2 FL is 5970 nM; on PARP-1 FL, below 250 nM.

For `Cn1cc(CN2CCC(N3Cc4cccc(C(N)=O)c4C3=O)CC2)cn1` [Compound 33, 2-{1-[(1-Methyl-1H-pyrazol-4-yl)methyl]piperidin-4-yl}-3-oxo-2,3-dihydro-1H-isoindole-4-carboxamide], in test [1], the pIC50 is 5.96. Further, the results for the DC50 on PARP-2 FL and on PARP-1 FL were above 10000 nM and below 250 nM, respectively.

As to `Cc1c(CN2CCC(N3Cc4cccc(C(N)=O)c4C3=O)CC2)cnn1C` [Compound 34, 2-{1-[(1,5-Dimethyl-1H-pyrazol-4-yl)methyl]piperidin-4-yl}-3-oxo-2,3-dihydro-1H-isoindole-4-carboxamide], the pIC50 in test [1] is 6.05. Also, the DC50 is above 10000 nM at PARP-2 FL and 340 nM at PARP-1 FL. In addition, on PARP-1 FL, the pKd is 6.89.

Take `COc1cccc(CN2CCC(N3Cc4cccc(C(N)=O)c4C3=O)CC2)c1` [Compound 35, 2-[1-(3-Methoxybenzyl)piperidin-4-yl]-3-oxo-2,3-dihydro-1H-isoindole-4-carboxamide]: the negative-log IC50 (pIC50) in test [1] is 6.52. For the same molecule, on PARP-2 FL, the DC50 is above 10000 nM. Besides, on PARP-1 FL, the negative logarithm of the Kd (pKd) is above 7.52 and the DC50 is below 250 nM.

On to `Cc1ccsc1CN1CCC(N2Cc3cccc(C(N)=O)c3C2=O)CC1` [Compound 36, 2-{1-[(3-Methylthiophen-2-yl)methyl]piperidin-4-yl}-3-oxo-2,3-dihydro-1H-isoindole-4-carboxamide], for which the pIC50 in test [1] was 6.64. Moreover, the DC50 on PARP-2 FL is 9400 nM; on PARP-1 FL it was below 250 nM. At PARP-1 FL, this molecule gave a pKd above 7.52.

For `CCCOc1ccc(CN2CCC(N3Cc4cccc(C(N)=O)c4C3=O)CC2)cc1` [Compound 37, 3-oxo-2-[1-(4-propoxybenzyl)piperidin-4-yl]-2,3-dihydro-1H-isoindole-4-carboxamide], in test [1], the pIC50 was 6.59. In addition, the DC50 is above 10000 nM at PARP-2 FL and below 250 nM on PARP-1 FL. Moreover, the pKd at PARP-1 FL was above 7.52.

For `CC(C)c1ccc(CN2CCC(N3Cc4cccc(C(N)=O)c4C3=O)CC2)cc1` [Compound 38, 3-oxo-2-{1-[4-(propan-2-yl)benzyl]piperidin-4-yl}-2,3-dihydro-1H-isoindole-4-carboxamide], in test [1], the pIC50 was 6.59. The DC50 at PARP-2 FL was above 10000 nM. Further, at PARP-1 FL, the negative-log Kd (pKd) is above 7.52 and the DC50 was below 250 nM.

On to `COc1ccc(CN2CCC(N3Cc4cccc(C(N)=O)c4C3=O)CC2)cc1` [Compound 39, 2-[1-(4-Methoxybenzyl)piperidin-4-yl]-3-oxo-2,3-dihydro-1H-isoindole-4-carboxamide], for which the pIC50 in test [1] was 6.48. Moreover, the DC50 on PARP-2 FL was above 10000 nM. On PARP-1 FL, this molecule had a pKd above 7.52 and a DC50 below 250 nM.

Take `CCOc1cccc(CN2CCC(N3Cc4cccc(C(N)=O)c4C3=O)CC2)c1` [Compound 40, 2-[1-(3-Ethoxybenzyl)piperidin-4-yl]-3-oxo-2,3-dihydro-1H-isoindole-4-carboxamide]: the negative-log IC50 (pIC50) in test [1] is 6.21. Moreover, the DC50 was above 10000 nM on PARP-2 FL and below 250 nM at PARP-1 FL. At PARP-1 FL, this molecule had a pKd of 6.96.

For the molecule `CC(C)Oc1ccccc1CN1CCC(N2Cc3cccc(C(N)=O)c3C2=O)CC1` [Compound 41, 3-oxo-2-{1-[2-(propan-2-yloxy)benzyl]piperidin-4-yl}-2,3-dihydro-1H-isoindole-4-carboxamide], the DC50 at PARP-2 FL was above 10000 nM; on PARP-1 FL, 470 nM.

For `NC(=O)c1cccc2c1C(=O)N(C1CCN(Cc3cccc(Cl)c3)CC1)C2` [Compound 42, 2-[1-(3-Chlorobenzyl)piperidin-4-yl]-3-oxo-2,3-dihydro-1H-isoindole-4-carboxamide], the pIC50 in test [1] is 5.27. In addition, on PARP-2 FL, the DC50 was determined as 4150 nM. Besides, on PARP-1 FL, the negative-log Kd (pKd) was 7.48 and the DC50 was below 250 nM.

As to `CCc1ccc(CN2CCC(N3Cc4cccc(C(N)=O)c4C3=O)CC2)cc1` [Compound 43, 2-[1-(4-Ethylbenzyl)piperidin-4-yl]-3-oxo-2,3-dihydro-1H-isoindole-4-carboxamide], in test [1], the pIC50 was 5.58. Further, the DC50 on PARP-2 FL is above 10000 nM; on PARP-1 FL it was below 250 nM. The molecule also had a pKd at PARP-1 FL above 7.52.

Regarding `CC(C)Oc1ccc(CN2CCC(N3Cc4cccc(C(N)=O)c4C3=O)CC2)cc1` [Compound 44, 3-oxo-2-{1-[4-(propan-2-yloxy)benzyl]piperidin-4-yl}-2,3-dihydro-1H-isoindole-4-carboxamide], the pIC50 in test [1] was 6.30. The DC50 on PARP-2 FL is above 10000 nM; at PARP-1 FL it was below 250 nM.

On to `Cc1ccc(CN2CCC(N3Cc4cccc(C(N)=O)c4C3=O)CC2)s1` [Compound 45, 2-{1-[(5-Methylthiophen-2-yl)methyl]piperidin-4-yl}-3-oxo-2,3-dihydro-1H-isoindole-4-carboxamide], for which, in test [1], the pIC50 was 6.44. Further, at PARP-2 FL, the DC50 was above 10000 nM. On PARP-1 FL, the negative logarithm of the Kd (pKd) was above 7.52 and the DC50 was below 250 nM.

Take `NC(=O)c1cccc2c1C(=O)N(CCCN1CCN(c3cccc(Cl)c3)CC1)C2` [Compound 46, 2-{3-[4-(3-Chloro-phenyl)-piperazin-1-yl]-propyl}-3-oxo-2,3-dihydro-1H-isoindole-4-carboxylic acid amide]: the negative-log IC50 (pIC50) in test [1] is 6.40. Moreover, the DC50 on PARP-2 FL was 1460 nM; on PARP-1 FL it was below 250 nM.

Turning to `NC(=O)c1cccc2c1C(=O)N(CC1CCN(Cc3ccc(F)cc3)CC1)C2` [Compound 51, 2-{[1-(4-Fluorobenzyl)piperidin-4-yl]methyl}-3-oxo-2,3-dihydro-1H-isoindole-4-carboxamide], the pIC50 in test [1] was 6.80. Besides, the DC50 at PARP-2 FL was 5680 nM. On PARP-1 FL, this molecule gave a pKd above 7.52 and a DC50 below 250 nM.
